{"source": "patent US20060258535A1", "about": "“METHOD OF USING SODIUM CARBONATE PEROXYHYDRATE AS AN HERBICIDE” (BIOSAFE SYSTEMS L.L.C.,, priority 2005, published 2006)", "key": {"[1]": {"settings": "EPA determination; cited from earlier work"}, "[2]": {"system": "algae, bacteria, fungi, viruses and bryophyte plant material such as mosses, liverworts, hornworts, lichens", "assay": "1% spray solution on simple celled plant material", "assay_type": "in vivo", "text": "The pH of the resulting solution is typically alkaline, which activates the H2O2 for bleaching. The dry powder contains about 30% by weight w/w H2O2 and finds specialty use as a wood brightener and general cleaning aid."}, "[3]": {"system": "most types of plant material", "assay": "Spray solution over the tops of growing plant material", "assay_type": "in vivo", "settings": "diluted in water, sprayed over the tops of growing plant material, no foam"}, "[4]": {"settings": "EPA determination, cited from earlier work"}, "[5]": {"settings": "EPA determination; cited from earlier work", "remark": "listed apart in the source"}, "[6]": {"settings": "EPA determination; cited from earlier work", "remark": "listed apart in the source"}}, "data": [{"smiles": "O=C([O-])[O-].O=C([O-])[O-].OO.OO.OO.[Na+].[Na+].[Na+].[Na+]", "note": "[sodium carbonate peroxyhydrate]", "values": [{"measurement": "dermal sensitizer", "setting": "[1]", "value": "not considered a dermal sensitizer"}, {"measurement": "effect on simple celled plant material", "setting": "[2]", "value": "kill on contact"}, {"measurement": "phytotoxicity effects of spray solution", "setting": "[3]", "value": "minimal with some plant cell necrosis"}, {"measurement": "toxicity, dermal exposure", "setting": "[4]; dermal exposure", "value": "minimal to mild toxicity"}, {"measurement": "toxicity, oral exposure", "setting": "[4]; oral exposure", "value": "minimal to mild toxicity"}, {"measurement": "eye damage", "setting": "[5]", "value": "severe irreversible eye damage"}, {"measurement": "dermal irritation", "setting": "[6]", "value": "Dermal irritation also occurred"}]}]}
